Assay results reported in ChEMBL document CHEMBL4190251, “Design and synthesis of conformationally constrained salinomycin derivatives” (Eur J Med Chem, 2017).

What was measured:
[1] = tested on: HT-29; test: Antiproliferative activity against human HT-29 cells at 10 uM after 48 hrs by MTT assay relative to control; type: functional
[2] = tested on: HT-29; test: Antiproliferative activity against human HT-29 cells after 48 hrs by MTT assay; type: functional, cell-based; conditions: HT-29, 48 h

CC[C@@H](C(=O)[C@@H](C)[C@@H](O)[C@H](C)[C@@H]1O[C@@H]([C@@H](CC)C(=O)O)CC[C@@H]1C)[C@H]1O[C@]2(C=C[C@@H](O)[C@]3(CC[C@@](C)([C@H]4CC[C@](O)(CC)[C@H](C)O4)O3)O2)[C@H](C)C[C@@H]1C [SALINOMYCIN]
Activity [1]: 76.1%

C=CCCC(=O)O[C@@H]1CC[C@]2(O[C@H]([C@@H](CC)C(=O)[C@@H](C)[C@@H](O)[C@H](C)[C@@H]3O[C@@H]([C@@H](CC)C(=O)OCC=C)CC[C@@H]3C)[C@@H](C)C[C@H]2C)O[C@@]12CC[C@@](C)([C@H]1CC[C@](O)(CC)[C@H](C)O1)O2
Activity [1]: <10%

CC[C@H]1C(=O)[C@@H](C)[C@@H](O)[C@H](C)[C@@H]2O[C@H](CC[C@@H]2C)[C@@H](CC)C(=O)OC/C=C/C(=O)O[C@@H]2CC[C@]3(O[C@H]1[C@@H](C)C[C@H]3C)O[C@@]21CC[C@@](C)([C@H]2CC[C@](O)(CC)[C@H](C)O2)O1
IC50 [2]: > 10 µM
Activity [1]: 13.6%

CC[C@H]1C(=O)[C@@H](C)[C@@H](O)[C@H](C)[C@@H]2O[C@H](CC[C@@H]2C)[C@@H](CC)C(=O)OC/C=C/CCC(=O)O[C@@H]2CC[C@]3(O[C@H]1[C@@H](C)C[C@H]3C)O[C@@]21CC[C@@](C)([C@H]2CC[C@](O)(CC)[C@H](C)O2)O1
IC50 [2]: 7.64 µM
Activity [1]: 67%

C=CCOC(=O)[C@H](CC)[C@H]1CC[C@H](C)[C@H]([C@@H](C)[C@H](O)[C@H](C)C(=O)[C@H](CC)[C@H]2O[C@]3(CC[C@@H](OC(=O)C=C)[C@]4(CC[C@@](C)([C@H]5CC[C@](O)(CC)[C@H](C)O5)O4)O3)[C@H](C)C[C@@H]2C)O1
Activity [1]: <10%
